Source: patent US6706663B2, “Herbicidal 3-heterocyclic substituted benzisothiazole and benzisoxazole compounds” (Wyeth, priority 2000, dated 2004)

How the values were obtained:
ORYSAT (Rice, Tebonnet) = assay: Preemergence herbicidal evaluation; type: in vivo, Oryza sativa, (L.) Tebonnet; details: preemergence, rated 4-5 weeks after treatment
ZEAMX (Corn, Field) [1] = assay: Preemergence herbicidal evaluation; type: in vivo, Zea mays, L.; details: preemergence, rated 4-5 weeks after treatment
CYPIR (Cyperus iria) = assay: Flooded paddy, preemergence weed control; type: in vivo; details: rated 3-4 weeks after treatment, 0-9 rating scale
In short: (§1)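 Preemergence, flooded: propagules planted at 0.5 cm depth in silt loam, water level maintained at 1.5 to 3 cm over soil, containers kept on greenhouse benches. Activity scored 0-9 by eye relative to a control plant.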

GALAP (Galium aparine) [2] = assay: Postemergence herbicidal evaluation; type: in vivo
In short: (§2)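 Visual 0–9 injury scores versus control plants, covering stand, vigour, malformation, size, chlorosis and general appearance, taken four to five weeks post-spray and averaged over replicate tests. Plants were sprayed at roughly two weeks old and held on greenhouse benches.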

[3] = system: ECHCG (Echinochloa crus-galli); assay: Postemergence herbicidal evaluation; type: in vivo, (L.) Beau
In short: as §2

[4] = system: TRZAWR (Wheat, Winter, cv Riband); assay: Preemergence herbicidal evaluation; type: in vivo, Triticum aestivum; details: preemergence, rated 4-5 weeks after treatment
In short: (§3)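 Visual 0-9 rating versus untreated control, taken four to five weeks post-treatment, scoring stand, vigor, malformation, size, chlorosis and overall appearance. Compound applied as aqueous acetone spray to freshly seeded soil cups, then kept under standard greenhouse care.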

[5] = system: CHEAL (Chenopodium album); assay: Postemergence herbicidal evaluation; type: in vivo, L.
In short: as §2

[6] = system: CASOB (Cassia obtusifolia); assay: Postemergence herbicidal evaluation; type: in vivo, L.
In short: as §2

[7] = system: AMBEL (Ambrosia artemisifolia); assay: Postemergence herbicidal evaluation; type: in vivo, L.
In short: as §2

[8] = system: CHEAL (Chenopodium album); assay: Preemergence herbicidal evaluation; type: in vivo, L.; details: preemergence, rated 4-5 weeks after treatment
In short: as §3

[9] = system: CASOB (Cassia obtusifolia); assay: Preemergence herbicidal evaluation; type: in vivo, L.; details: preemergence, rated 4-5 weeks after treatment
In short: as §3

[10] = system: AMBEL (Ambrosia artemisifolia); assay: Preemergence herbicidal evaluation; type: in vivo, L.; details: preemergence, rated 4-5 weeks after treatment
In short: as §3

GALAP (Galium aparine) [11] = assay: Preemergence herbicidal evaluation; type: in vivo; details: preemergence, rated 4-5 weeks after treatment
In short: as §3

[12] = system: ABUTH (Abutilon theophrasti); assay: Postemergence herbicidal evaluation; type: in vivo, Medic.
In short: as §2

[13] = system: IPOHE (Ipomoea hederacea); assay: Postemergence herbicidal evaluation; type: in vivo, (L.) Jacq.
In short: as §2

[14] = system: CYPSE (Cyperus serotinus); assay: Flooded paddy, preemergence weed control; type: in vivo, Rottb.; details: rated 3-4 weeks after treatment, 0-9 rating scale
In short: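 Herbicidal effect was scored visually on a 0–9 scale against an untreated control 3–4 weeks after treatment. Compounds were applied preemergence as 50/50 v/v aqueous/acetone mixtures into flood water (1.5–3 cm deep over silt loam), at roughly 0.0080 to 0.1250 kg/ha active ingredient.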

[15] = system: SAGPY (Sagittaria pygmaea); assay: Flooded paddy, preemergence weed control; type: in vivo, L.; details: rated 3-4 weeks after treatment, 0-9 rating scale
In short: as §1

[16] = system: GLXMAW (Soybean, Williams); assay: Preemergence herbicidal evaluation; type: in vivo, Glycine max, (L.) Merr. cv Williams; details: preemergence, rated 4-5 weeks after treatment
[17] = system: ECHORC (Echinochloa oryzoides); assay: Flooded paddy, preemergence weed control; type: in vivo, Echinochloa oryzoides (Ard.) Fritsch.; details: rated 3-4 weeks after treatment, 0-9 rating scale
In short: as §1

[18] = system: IPOHE (Ipomoea hederacea); assay: Preemergence herbicidal evaluation; type: in vivo, (L.) Jacq.; details: preemergence, rated 4-5 weeks after treatment
ZEAMX (Corn, Field) [19] = assay: Postemergence herbicidal evaluation; type: in vivo, Zea mays, L.
In short: as §2

[20] = system: GLXMAW (Soybean, Williams); assay: Postemergence herbicidal evaluation; type: in vivo, Glycine max, (L.) Merr. cv Williams
In short: as §2

Cn1c(C(F)(F)F)cc(=O)n(-c2ccc3snc(C4OCCS4)c3c2)c1=O (centres unmarked) [Compound 31, 1-methyl-3-[3-(1,3-oxathiolan-2-yl)-1,2-benzisothiazol-5-yl]-6-(trifluoromethyl)uracil]
ORYSAT preemergence herbicidal rating (ORYSAT (Rice, Tebonnet); Rate 0.0620 kg/ha): 4.0 | ORYSAT preemergence herbicidal rating (ORYSAT (Rice, Tebonnet); Rate 0.1250 kg/ha): 7.7 | ORYSAT preemergence herbicidal rating (ORYSAT (Rice, Tebonnet); Rate 0.2500 kg/ha): 8.5 | ZEAMX preemergence herbicidal rating (ZEAMX (Corn, Field) [1]; Rate 0.0620 kg/ha): 4.7 | ZEAMX preemergence herbicidal rating (ZEAMX (Corn, Field) [1]; Rate 0.1250 kg/ha): 6.3 | ZEAMX preemergence herbicidal rating (ZEAMX (Corn, Field) [1]; Rate 0.2500 kg/ha): 8.5 | herbicidal rating, CYPIR (CYPIR (Cyperus iria); rate 0.0080 kg/ha): 0.0 | herbicidal rating, CYPIR (CYPIR (Cyperus iria); rate 0.0320 kg/ha): 9.0 | herbicidal rating, CYPIR (CYPIR (Cyperus iria); rate 0.1250 kg/ha): 9.0 | Postemergence herbicidal rating, GALAP (GALAP (Galium aparine) [2]; rate 0.0320 kg/ha): 6.0 | Postemergence herbicidal rating, GALAP (GALAP (Galium aparine) [2]; rate 0.0620 kg/ha): 9.0 | Postemergence herbicidal rating, ECHCG ([3]; rate 0.0320 kg/ha): 2.0 | Postemergence herbicidal rating, ECHCG ([3]; rate 0.0620 kg/ha): 2.0 | TRZAWR preemergence herbicidal rating ([4]; Rate 0.0620 kg/ha): 7.0 | TRZAWR preemergence herbicidal rating ([4]; Rate 0.1250 kg/ha): 8.0 | TRZAWR preemergence herbicidal rating ([4]; Rate 0.2500 kg/ha): 9.0 | Postemergence herbicidal rating, CHEAL ([5]; rate 0.0320 kg/ha): 9.0 | Postemergence herbicidal rating, CHEAL ([5]; rate 0.0620 kg/ha): 9.0 | Postemergence herbicidal rating, CASOB ([6]; rate 0.0320 kg/ha): 5.0 | Postemergence herbicidal rating, CASOB ([6]; rate 0.0620 kg/ha): 8.0 | Postemergence herbicidal rating, AMBEL ([7]; rate 0.0320 kg/ha): 9.0 | Postemergence herbicidal rating, AMBEL ([7]; rate 0.0620 kg/ha): 9.0 | CHEAL preemergence herbicidal rating ([8]; Rate 0.0620 kg/ha): 9.0 | CHEAL preemergence herbicidal rating ([8]; Rate 0.1250 kg/ha): 9.0 | CHEAL preemergence herbicidal rating ([8]; Rate 0.2500 kg/ha): 9.0 | CASOB preemergence herbicidal rating ([9]; Rate 0.0620 kg/ha): 5.0 | CASOB preemergence herbicidal rating ([9]; Rate 0.1250 kg/ha): 8.0 | CASOB preemergence herbicidal rating ([9]; Rate 0.2500 kg/ha): 9.0 | AMBEL preemergence herbicidal rating ([10]; Rate 0.0620 kg/ha): 9.0 | AMBEL preemergence herbicidal rating ([10]; Rate 0.1250 kg/ha): 9.0 | AMBEL preemergence herbicidal rating ([10]; Rate 0.2500 kg/ha): 9.0 | GALAP preemergence herbicidal rating (GALAP (Galium aparine) [11]; Rate 0.0620 kg/ha): 5.0 | GALAP preemergence herbicidal rating (GALAP (Galium aparine) [11]; Rate 0.1250 kg/ha): 9.0 | GALAP preemergence herbicidal rating (GALAP (Galium aparine) [11]; Rate 0.2500 kg/ha): 9.0 | Postemergence herbicidal rating, ABUTH ([12]; rate 0.0320 kg/ha): 9.0 | Postemergence herbicidal rating, ABUTH ([12]; rate 0.0620 kg/ha): 9.0 | Postemergence herbicidal rating, IPOHE ([13]; rate 0.0320 kg/ha): 9.0 | Postemergence herbicidal rating, IPOHE ([13]; rate 0.0620 kg/ha): 9.0 | herbicidal rating, CYPSE ([14]; rate 0.0320 kg/ha): 4.0 | herbicidal rating, CYPSE ([14]; rate 0.1250 kg/ha): 5.0 | herbicidal rating, SAGPY ([15]; rate 0.0080 kg/ha): 0.0 | herbicidal rating, SAGPY ([15]; rate 0.0320 kg/ha): 9.0 | herbicidal rating, SAGPY ([15]; rate 0.1250 kg/ha): 9.0 | GLXMAW preemergence herbicidal rating ([16]; Rate 0.0620 kg/ha): 8.5 | GLXMAW preemergence herbicidal rating ([16]; Rate 0.1250 kg/ha): 7.3 | GLXMAW preemergence herbicidal rating ([16]; Rate 0.2500 kg/ha): 9.0 | herbicidal rating, ECHORC ([17]; rate 0.0080 kg/ha): 3.0 | herbicidal rating, ECHORC ([17]; rate 0.0320 kg/ha): 8.0 | herbicidal rating, ECHORC ([17]; rate 0.1250 kg/ha): 9.0 | IPOHE preemergence herbicidal rating ([18]; Rate 0.0620 kg/ha): 5.0 | IPOHE preemergence herbicidal rating ([18]; Rate 0.1250 kg/ha): 9.0 | IPOHE preemergence herbicidal rating ([18]; Rate 0.2500 kg/ha): 9.0 | Postemergence herbicidal rating, ZEAMX (ZEAMX (Corn, Field) [19]; rate 0.0320 kg/ha): 5.5 | Postemergence herbicidal rating, ZEAMX (ZEAMX (Corn, Field) [19]; rate 0.0620 kg/ha): 5.5 | Postemergence herbicidal rating, GLXMAW ([20]; rate 0.0320 kg/ha): 8.5 | Postemergence herbicidal rating, GLXMAW ([20]; rate 0.0620 kg/ha): 9.0
